According to ChEMBL document CHEMBL3045426, “Synthesis, Antiviral and Antibacterial Activities of Isatin Mannich Bases” (Med Chem Res, 2005):
Values after ≈ are worked out from the molar mass of the structure shown.

What was measured:
[1] = Cytotoxicity against Homo sapiens (human) HuH7 cells assessed as cell growth at 50 ug/ml after 3 days by Neutral red assay; assay type: cell-based, Huh-7; conditions: read-out: Activity
Klebsiella pneumoniae [2] = experiment: Antimicrobial activity against Klebsiella pneumoniae subsp. ozaenae after 18 to 20 hr by agar dilution method; assay type: functional
Staphylococcus aureus = experiment: Antimicrobial activity against Staphylococcus aureus after 18 to 20 hr by agar dilution method; assay type: functional
Morganella morganii = experiment: Antimicrobial activity against Morganella morganii after 18 to 20 hr by agar dilution method; assay type: functional
Vibrio parahaemolyticus = experiment: Antimicrobial activity against Vibrio parahaemolyticus after 18 to 20 hr by agar dilution method; assay type: functional
Klebsiella pneumoniae [3] = experiment: Antimicrobial activity against Klebsiella pneumoniae after 18 to 20 hr by agar dilution method; assay type: functional
Proteus mirabilis = experiment: Antimicrobial activity against Proteus mirabilis after 18 to 20 hr by agar dilution method; assay type: functional
Salmonella paratyphi = experiment: Antimicrobial activity against Salmonella enterica subsp. enterica serovar Paratyphi A after 18 to 20 hr by agar dilution method; assay type: functional
[4] = Cytotoxicity against Homo sapiens (human) CEM cells after 5 days by MTT assay; assay type: cell-based; conditions: CEM cells (CCRF-CEM)
Citrobacter freundii = experiment: Antimicrobial activity against Citrobacter freundii after 18 to 20 hr by agar dilution method; assay type: functional
Salmonella typhi = experiment: Antimicrobial activity against Salmonella enterica subsp. enterica serovar Typhi after 18 to 20 hr by agar dilution method; assay type: functional
Proteus vulgaris = experiment: Antimicrobial activity against Proteus vulgaris after 18 to 20 hr by agar dilution method; assay type: functional
[5] = system: Human immunodeficiency virus 1; experiment: Antiviral activity against Human immunodeficiency virus 1 IIIB infected CEM cells assessed as protection against viral infection after 6 days by XTT assay; assay type: functional, CCRF-CEM; set-up: concentration or dose not given beside the values
Edwardsiella tarda = experiment: Antimicrobial activity against Edwardsiella tarda after 18 to 20 hr by agar dilution method; assay type: functional
Salmonella typhimurium = experiment: Antimicrobial activity against Salmonella enterica subsp. enterica serovar Typhimurium after 18 to 20 hr by agar dilution method; assay type: functional
Shigella sonnei = experiment: Antimicrobial activity against Shigella sonnei after 18 to 20 hr by agar dilution method; assay type: functional
[6] = system: Human immunodeficiency virus 1; experiment: Antiviral activity against Human immunodeficiency virus 1 IIIB infected MT4 cells assessed as inhibition of virus-induced cytopathicity after 5 days by MTT assay; assay type: functional, organism-based; conditions: MT4, 120 h
Pseudomonas aeruginosa = experiment: Antimicrobial activity against Pseudomonas aeruginosa after 18 to 20 hr by agar dilution method; assay type: functional
Priestia megaterium = experiment: Antimicrobial activity against Bacillus megaterium after 18 to 20 hr by agar dilution method; assay type: functional
Plesiomonas = experiment: Antimicrobial activity against Plesiomonas after 18 to 20 hr by agar dilution method; assay type: functional
Vibrio mimicus = experiment: Antimicrobial activity against Vibrio mimicus after 18 to 20 hr by agar dilution method; assay type: functional
[7] = Selectivity index, ratio of CC50 for human MT4 cells to EC50 for HIV1 3B infected in MT4 cells; assay type: toxicity, cell-based; conditions: read-out: Ratio CC50/EC50
Shigella boydii = experiment: Antimicrobial activity against Shigella boydii after 18 to 20 hr by agar dilution method; assay type: functional
Hepatitis C virus = experiment: Antiviral activity against Hepatitis C virus BM4-5 infected in Huh7 cells assessed as inhibition of viral RNA replication by phosphor screening method; assay type: functional, Hepacivirus hominis, Huh-7
[8] = system: Mycobacterium tuberculosis; experiment: Antimycobacterial activity against Mycobacterium tuberculosis H37Rv ATCC 27294 at 6.25 ug/ml by MABA; assay type: functional
Vibrio cholerae [9] = experiment: Antimicrobial activity against Vibrio cholerae 0139 after 18 to 20 hr by agar dilution method; assay type: functional; conditions: 139
Salmonella enteritidis = experiment: Antimicrobial activity against Salmonella enterica subsp. enterica serovar Enteritidis after 18 to 20 hr by agar dilution method; assay type: functional
Vibrio fluvialis = experiment: Antimicrobial activity against Vibrio fluvialis after 18 to 20 hr by agar dilution method; assay type: functional
Enterobacter = experiment: Antimicrobial activity against Enterobacter after 18 to 20 hr by agar dilution method; assay type: functional
[10] = system: Human immunodeficiency virus 1; experiment: Antiviral activity against Human immunodeficiency virus 1 IIIB infected MT4 cells assessed as protection against viral infection after 5 days by MTT assay; assay type: functional; set-up: concentration or dose not given beside the values
Escherichia coli = experiment: Antimicrobial activity against Escherichia coli NCTC 10418 after 18 to 20 hr by agar dilution method; assay type: functional
[11] = system: Human immunodeficiency virus 1; experiment: Antiviral activity against Human immunodeficiency virus 1 IIIB infected CEM cells assessed as inhibition of virus-induced cytopathicity after 6 days by XTT assay; assay type: functional, organism-based; conditions: CCRF-CEM, 144 h
[12] = Cytotoxicity against Homo sapiens (human) MT4 cells after 5 days by MTT assay; assay type: cell-based
Vibrio cholerae [13] = experiment: Antimicrobial activity against Vibrio cholerae 01 after 18 to 20 hr by agar dilution method; assay type: functional; conditions: 1

SMILES | viability at 72 h, 50 ug/ml [1] [%] | MIC (Klebsiella pneumoniae [2]) [µg/mL] | MIC (Staphylococcus aureus) [µg/mL] | MIC (Morganella morganii) [µg/mL] | MIC (Vibrio parahaemolyticus) [µg/mL] | MIC (Klebsiella pneumoniae [3]) [µg/mL] | MIC (Proteus mirabilis) [µg/mL] | MIC (Salmonella paratyphi) [µg/mL] | CC50 at 120 h [4] [µg/mL] | MIC (Citrobacter freundii) [µg/mL] | MIC (Salmonella typhi) [µg/mL] | MIC (Proteus vulgaris) [µg/mL] | Activity [5] [%] | MIC (Edwardsiella tarda) [µg/mL] | MIC (Salmonella typhimurium) [µg/mL] | MIC (Shigella sonnei) [µg/mL] | EC50 [6] [µg/mL] | MIC (Pseudomonas aeruginosa) [µg/mL] | MIC (Priestia megaterium) [µg/mL] | MIC (Plesiomonas) [µg/mL] | also measured
COc1cc(Cc2cnc(/N=C3\C(=O)N(CN(Cc4ccccc4)Cc4ccccc4)c4ccc(Cl)cc43)nc2N)cc(OC)c1OC | 65 | 1250 (≈ 1880 µM) | 625 (≈ 942 µM) | 625 (≈ 942 µM) | 19.5 (≈ 29.4 µM) | 1250 (≈ 1880 µM) | 625 (≈ 942 µM) | 625 (≈ 942 µM) | 37.1 (≈ 55.9 µM) | 1250 (≈ 1880 µM) | 625 (≈ 942 µM) | 625 (≈ 942 µM) | 20.98 | 625 (≈ 942 µM) | 1250 (≈ 1880 µM) | 1250 (≈ 1880 µM) | 10.4 (≈ 15.7 µM) | 1250 (≈ 1880 µM) | 1250 (≈ 1880 µM) | 39.1 (≈ 58.9 µM) | MIC (Vibrio mimicus): 4.88 µg/mL (≈ 7.36 µM); selectivity ratio [7]: 3; MIC (Shigella boydii): 1.22 µg/mL (≈ 1.84 µM); inhibition (INH) (Hepatitis C virus): 81%; inhibition at 6.25 µg/mL [8]: 97%; MIC (Vibrio cholerae [9]): 312 µg/mL (≈ 471 µM); MIC (Salmonella enteritidis): 625 µg/mL (≈ 942 µM); MIC (Vibrio fluvialis): 1250 µg/mL (≈ 1880 µM); MIC (Enterobacter): 625 µg/mL (≈ 942 µM); Activity [10]: 95.1%; MIC (Escherichia coli): 625 µg/mL (≈ 942 µM); EC50 [11]: > 37.1 µg/mL; CC50 at 120 h [12]: 44.1 µg/mL (≈ 66.5 µM); MIC (Vibrio cholerae [13]): 1.22 µg/mL (≈ 1.84 µM)
COc1cc(Cc2cnc(/N=C3\C(=O)N(CN4CCN(c5ccc(F)cc5)CC4)c4ccc(Cl)cc43)nc2N)cc(OC)c1OC | 64 | 625 (≈ 967 µM) | 625 (≈ 967 µM) | 625 (≈ 967 µM) | 39.1 (≈ 60.5 µM) | 1250 (≈ 1930 µM) | 625 (≈ 967 µM) | 312 (≈ 484 µM) | 71 (≈ 110 µM) | 625 (≈ 967 µM) | 625 (≈ 967 µM) | 625 (≈ 967 µM) | 22.98 | 625 (≈ 967 µM) | 625 (≈ 967 µM) | 1250 (≈ 1930 µM) | 56.1 (≈ 86.8 µM) | 1250 (≈ 1930 µM) | 625 (≈ 967 µM) | 9.76 (≈ 15.1 µM) | MIC (Vibrio mimicus): 4.88 µg/mL (≈ 7.55 µM); selectivity ratio [7]: 3; MIC (Shigella boydii): 19.5 µg/mL (≈ 30.2 µM); inhibition (INH) (Hepatitis C virus): 80%; inhibition at 6.25 µg/mL [8]: 35%; MIC (Vibrio cholerae [9]): 625 µg/mL (≈ 967 µM); MIC (Salmonella enteritidis): 625 µg/mL (≈ 967 µM); MIC (Vibrio fluvialis): 1250 µg/mL (≈ 1930 µM); MIC (Enterobacter): 625 µg/mL (≈ 967 µM); Activity [10]: 59.6%; MIC (Escherichia coli): 625 µg/mL (≈ 967 µM); EC50 [11]: > 71 µg/mL; CC50 at 120 h [12]: 65.6 µg/mL (≈ 102 µM); MIC (Vibrio cholerae [13]): 4.88 µg/mL (≈ 7.55 µM)
CCN(CC)CN1C(=O)/C(=N\c2ncc(Cc3cc(OC)c(OC)c(OC)c3)c(N)n2)c2cc(Cl)ccc21 | 72 | 625 (≈ 1160 µM) | 625 (≈ 1160 µM) | 625 (≈ 1160 µM) | 39.1 (≈ 72.5 µM) | 1250 (≈ 2320 µM) | 312 (≈ 580 µM) | 78.1 (≈ 145 µM) | 98.4 (≈ 183 µM) | 312 (≈ 580 µM) | 1250 (≈ 2320 µM) | 625 (≈ 1160 µM) | 20.69 | 1250 (≈ 2320 µM) | 312 (≈ 580 µM) | 1250 (≈ 2320 µM) | 23.6 (≈ 43.8 µM) | 1250 (≈ 2320 µM) | 1250 (≈ 2320 µM) | 19.5 (≈ 36.2 µM) | MIC (Vibrio mimicus): 9.76 µg/mL (≈ 18.1 µM); selectivity ratio [7]: 3; MIC (Shigella boydii): 39.1 µg/mL (≈ 72.5 µM); inhibition (INH) (Hepatitis C virus): 67%; inhibition at 6.25 µg/mL [8]: 53%; MIC (Vibrio cholerae [9]): 312 µg/mL (≈ 580 µM); MIC (Salmonella enteritidis): 625 µg/mL (≈ 1160 µM); MIC (Vibrio fluvialis): 625 µg/mL (≈ 1160 µM); MIC (Enterobacter): 312 µg/mL (≈ 580 µM); Activity [10]: 64.1%; MIC (Escherichia coli): 1250 µg/mL (≈ 2320 µM); EC50 [11]: > 98.4 µg/mL; CC50 at 120 h [12]: 79.1 µg/mL (≈ 147 µM); MIC (Vibrio cholerae [13]): 1.22 µg/mL (≈ 2.26 µM)
